Each structure is given as a SMILES string.

The source of these data is paper PMC5218480 (PLoS ONE, 2017).

For the assay, the system named is MV-4-11 cells. In words: Gene expression microarray analysis (Affymetrix PrimeView) and GSEA. The class given is cell-based, human. Further details: RFU PODN (11730768_x_at) / Fold change /veh PODN (11730768_x_at) / RFU LINC00158 (11744669_a_at) / Fold change /veh LINC00158 (11744669_a_at) / RFU DUSP10 (11751237_a_at) / Fold change /veh DUSP10 (11751237_a_at) / RFU ID3 (11757404_x_at) / Fold change /veh ID3 (11757404_x_at) / RFU PLEKHG5 (11737974_s_at) / Fold change /veh PLEKHG5 (11737974_s_at) / RFU LRRC4B (11730491_at) / Fold change /veh LRRC4B (11730491_at) / RFU GIMAP4 (11747438_a_at) / Fold change /veh GIMAP4 (11747438_a_at) / RFU KRT8 (11758183_x_at) / Fold change /veh KRT8 (11758183_x_at) / RFU CNN1 (11734310_a_at) / Fold change /veh CNN1 (11734310_a_at) / RFU VPS37D (11726825_at) / Fold change /veh VPS37D (11726825_at) / RFU C10orf10 (11716522_x_at) / Fold change /veh C10orf10 (11716522_x_at) / RFU KIR2DL2 /// KIR2DL4 /// KIR2DL5A /// KIR2DL5B /// KIR2DS1 /// KIR2DS2 /// KIR2DS3 /// KIR2DS4 /// KIR3DL3 /// KIR3DL3 /// KIR3DS1 (11738374_at) / Fold change /veh KIR2DL2 /// KIR2DL4 /// KIR2DL5A /// KIR2DL5B /// KIR2DS1 /// KIR2DS2 /// KIR2DS3 /// KIR2DS4 /// KIR3DL3 /// KIR3DL3 /// KIR3DS1 (11738374_at) / RFU C1QL1 (11718748_at) / Fold change /veh C1QL1 (11718748_at) / RFU TMPRSS4 (11747572_a_at) / Fold change /veh TMPRSS4 (11747572_a_at) / RFU HAMP (11756126_x_at) / Fold change /veh HAMP (11756126_x_at) / RFU RNFT2 (11725882_a_at) / Fold change /veh RNFT2 (11725882_a_at) / RFU NR4A2 (11747474_a_at) / Fold change /veh NR4A2 (11747474_a_at) / RFU ABCC12 (11746883_a_at) / Fold change /veh ABCC12 (11746883_a_at) / RFU TMEM136 (11760407_x_at) / Fold change /veh TMEM136 (11760407_x_at) / RFU CLDN22 /// WWC2 (11732394_at) / Fold change /veh CLDN22 /// WWC2 (11732394_at) / RFU HLA-DPB1 (11760878_x_at) / Fold change /veh HLA-DPB1 (11760878_x_at) / RFU SPINT1 (11716480_a_at) / Fold change /veh SPINT1 (11716480_a_at) / RFU GAP43 (11754022_s_at) / Fold change /veh GAP43 (11754022_s_at) / RFU A4GNT (11735810_at) / Fold change /veh A4GNT (11735810_at) / RFU PRB3 (11715151_x_at) / Fold change /veh PRB3 (11715151_x_at) / RFU TUBB4B (11761932_at) / Fold change /veh TUBB4B (11761932_at) / RFU CAPN14 (11732068_a_at) / Fold change /veh CAPN14 (11732068_a_at) / RFU TMCC2 (11721928_a_at) / Fold change /veh TMCC2 (11721928_a_at) / RFU IRGQ (11745062_a_at) / Fold change /veh IRGQ (11745062_a_at) / RFU FAM174B (11720279_a_at) / Fold change /veh FAM174B (11720279_a_at) / RFU TMPRSS4 (11748680_a_at) / Fold change /veh TMPRSS4 (11748680_a_at) / RFU FAM212B (11763350_a_at) / Fold change /veh FAM212B (11763350_a_at) / RFU PLEKHG5 (11743358_a_at) / Fold change /veh PLEKHG5 (11743358_a_at) / RFU ZSCAN30 (11745921_a_at) / Fold change /veh ZSCAN30 (11745921_a_at) / RFU CMKLR1 (11741424_a_at) / Fold change /veh CMKLR1 (11741424_a_at) / RFU LOC101060620 /// MAPK8IP1 (11723275_at) / Fold change /veh LOC101060620 /// MAPK8IP1 (11723275_at) / RFU SPTSSB (11747773_x_at) / Fold change /veh SPTSSB (11747773_x_at) / RFU PRSS12 (11739890_at) / Fold change /veh PRSS12 (11739890_at) / RFU BIN1 (11741810_x_at) / Fold change /veh BIN1 (11741810_x_at) / RFU WNT11 (11732464_a_at) / Fold change /veh WNT11 (11732464_a_at) / RFU C10orf10 (11716521_a_at) / Fold change /veh C10orf10 (11716521_a_at) / RFU C5orf56 (11738089_at) / Fold change /veh C5orf56 (11738089_at) / RFU CYB561 (11721691_x_at) / Fold change /veh CYB561 (11721691_x_at) / RFU ANKRD19P (11752326_a_at) / Fold change /veh ANKRD19P (11752326_a_at) / RFU OR2T12 /// OR2T33 /// OR2T8 (11738714_s_at) / Fold change /veh OR2T12 /// OR2T33 /// OR2T8 (11738714_s_at) / RFU VCAN (11748164_a_at) / Fold change /veh VCAN (11748164_a_at) / RFU JSRP1 (11732532_at) / Fold change /veh JSRP1 (11732532_at) / RFU KRTAP10-11 (11738290_x_at) / Fold change /veh KRTAP10-11 (11738290_x_at) / RFU MYO3A (11730013_a_at) / Fold change /veh MYO3A (11730013_a_at) / RFU EBF3 (11725865_a_at) / Fold change /veh EBF3 (11725865_a_at) / RFU CAMK2N1 (11719241_x_at) / Fold change /veh CAMK2N1 (11719241_x_at) / RFU C5orf56 (11738088_a_at) / Fold change /veh C5orf56 (11738088_a_at) / RFU OLFML3 (11715873_a_at) / Fold change /veh OLFML3 (11715873_a_at) / RFU LOC100653217 /// NTM (11731650_a_at) / Fold change /veh LOC100653217 /// NTM (11731650_a_at) / RFU MAPK11 (11762145_a_at) / Fold change /veh MAPK11 (11762145_a_at) / RFU FIZ1 (11724087_x_at) / Fold change /veh FIZ1 (11724087_x_at) / RFU OASL (11726364_x_at) / Fold change /veh OASL (11726364_x_at) / RFU SOX15 (11748057_x_at) / Fold change /veh SOX15 (11748057_x_at) / RFU CD79A (11719716_a_at) / Fold change /veh CD79A (11719716_a_at) / RFU HIST1H1D (11736915_at) / Fold change /veh HIST1H1D (11736915_at) / RFU CASKIN2 (11723855_a_at) / Fold change /veh CASKIN2 (11723855_a_at) / RFU LOC730098 (11760151_x_at) / Fold change /veh LOC730098 (11760151_x_at) / RFU OR4N2 (11742367_at) / Fold change /veh OR4N2 (11742367_at) / RFU PRRT2 (11749266_a_at) / Fold change /veh PRRT2 (11749266_a_at) / RFU SNX32 (11753110_a_at) / Fold change /veh SNX32 (11753110_a_at) / RFU CDHR5 (11726645_a_at) / Fold change /veh CDHR5 (11726645_a_at) / RFU RCAN1 (11760418_a_at) / Fold change /veh RCAN1 (11760418_a_at) / RFU FAM167A (11723789_a_at) / Fold change /veh FAM167A (11723789_a_at) / RFU FAM26E (11764081_at) / Fold change /veh FAM26E (11764081_at) / RFU ISYNA1 (11749810_s_at) / Fold change /veh ISYNA1 (11749810_s_at) / RFU ACY1 (11761880_at) / Fold change /veh ACY1 (11761880_at) / RFU 11764098_at / Fold change /veh 11764098_at / RFU SAMD14 (11745864_x_at) / Fold change /veh SAMD14 (11745864_x_at) / RFU NPB (11741838_a_at) / Fold change /veh NPB (11741838_a_at) / RFU TMPRSS6 (11731388_a_at) / Fold change /veh TMPRSS6 (11731388_a_at) / RFU KRTAP10-2 (11738614_at) / Fold change /veh KRTAP10-2 (11738614_at) / RFU ARHGAP8 /// PRR5-ARHGAP8 (11727945_x_at) / Fold change /veh ARHGAP8 /// PRR5-ARHGAP8 (11727945_x_at) / RFU KRTAP5-7 /// NADSYN1 (11734609_at) / Fold change /veh KRTAP5-7 /// NADSYN1 (11734609_at) / RFU RASL12 (11751679_a_at) / Fold change /veh RASL12 (11751679_a_at) / RFU CDKN2B (11736163_a_at) / Fold change /veh CDKN2B (11736163_a_at) / RFU PRF1 (11729649_at) / Fold change /veh PRF1 (11729649_at) / RFU, ZNF638 /// ZNF638-IT1 / Fold change vs veh, ZNF638 /// ZNF638-IT1 / RFU, PANK3 / Fold change vs veh, PANK3 / RFU, SH3YL1 / Fold change vs veh, SH3YL1 / RFU, ZEB2 / Fold change vs veh, ZEB2 / RFU, NRIP1 / Fold change vs veh, NRIP1 / RFU, PTTG1IP / Fold change vs veh, PTTG1IP / RFU, CAPN2 / Fold change vs veh, CAPN2 / RFU, MED14 / Fold change vs veh, MED14 / RFU, SNORA58 / Fold change vs veh, SNORA58 / RFU, C1orf63 / Fold change vs veh, C1orf63 / RFU, LRRFIP1 / Fold change vs veh, LRRFIP1 / RFU, NDUFAF7 / Fold change vs veh, NDUFAF7 / RFU, SLC12A2 / Fold change vs veh, SLC12A2 / RFU, IBTK / Fold change vs veh, IBTK / RFU, ESF1 / Fold change vs veh, ESF1 / Fold change vs veh, TMEM50B / RFU, TAOK1 / Fold change vs veh, TAOK1 / RFU, ACBD3 / Fold change vs veh, ACBD3 / RFU, TMA16 / Fold change vs veh, TMA16 / RFU, RWDD3 / Fold change vs veh, RWDD3 / RFU, BCAT1 / Fold change vs veh, BCAT1 / RFU, EDEM3 / Fold change vs veh, EDEM3 / RFU, TMEM33 / Fold change vs veh, TMEM33 / RFU, WDR75 / Fold change vs veh, WDR75 / RFU, AHCTF1 / Fold change vs veh, AHCTF1 / RFU, TFRC / Fold change vs veh, TFRC / RFU, ZDHHC17 / Fold change vs veh, ZDHHC17 / RFU, NOM1 / Fold change vs veh, NOM1 / RFU, ARL8B / Fold change vs veh, ARL8B / RFU, ZBTB11 / Fold change vs veh, ZBTB11 / RFU, TAMM41 / Fold change vs veh, TAMM41 / RFU, KIAA1704 /// LOC100996395 / Fold change vs veh, KIAA1704 /// LOC100996395 / RFU, ING1 / Fold change vs veh, ING1 / RFU, TRMT61B / Fold change vs veh, TRMT61B / RFU, FUBP3 / Fold change vs veh, FUBP3 / RFU, TP53 / Fold change vs veh, TP53 / RFU, TNKS2 / Fold change vs veh, TNKS2 / RFU, ZFP14 / Fold change vs veh, ZFP14 / RFU, ACTR2 / Fold change vs veh, ACTR2 / RFU, PPP3R1 / Fold change vs veh, PPP3R1 / RFU, PIK3R1 / Fold change vs veh, PIK3R1 / RFU, HNRNPA1 / Fold change vs veh, HNRNPA1 / RFU, RNF170 / Fold change vs veh, RNF170 / RFU, ZNF28 / Fold change vs veh, ZNF28 / RFU, RNGTT / Fold change vs veh, RNGTT / RFU, OGT / Fold change vs veh, OGT / RFU, BRD1 / Fold change vs veh, BRD1 / RFU, MARS / Fold change vs veh, MARS / RFU, ZNF655 / Fold change vs veh, ZNF655 / RFU, FAHD1 / Fold change vs veh, FAHD1 / RFU, BDP1 / Fold change vs veh, BDP1 / RFU, LRRCC1 / Fold change vs veh, LRRCC1 / RFU, ARID1A / Fold change vs veh, ARID1A / RFU, ZNF146 / Fold change vs veh, ZNF146 / RFU, ZNF330 / Fold change vs veh, ZNF330 / RFU, GPN3 / Fold change vs veh, GPN3 / RFU, C9orf123 / Fold change vs veh, C9orf123 / RFU, N4BP2L2 / Fold change vs veh, N4BP2L2 / RFU, ARFIP1 / Fold change vs veh, ARFIP1 / RFU, FAM179B / Fold change vs veh, FAM179B / RFU, BCL10 / Fold change vs veh, BCL10 / RFU, UHRF1BP1L / Fold change vs veh, UHRF1BP1L / RFU, BET1 / Fold change vs veh, BET1 / RFU, CNOT2 / Fold change vs veh, CNOT2 / RFU, ZNF268 / Fold change vs veh, ZNF268 / Fold change vs veh, ZNF507 / RFU, DGCR2 / Fold change vs veh, DGCR2 / RFU, WDSUB1 / Fold change vs veh, WDSUB1 / Fold change vs veh, HSP90B1 /// MIR3652 / RFU, ADSS / Fold change vs veh, ADSS / RFU, GK / Fold change vs veh, GK / RFU, ZNF148 / Fold change vs veh, ZNF148 / RFU, TAF9 / Fold change vs veh, TAF9 / RFU, SLC1A5 / Fold change vs veh, SLC1A5 / RFU, SLMO2 / Fold change vs veh, SLMO2 / RFU, ABCC4 / Fold change vs veh, ABCC4 / RFU, LOC101060439 /// RAP1B / Fold change vs veh, LOC101060439 /// RAP1B / RFU, RFX7 / Fold change vs veh, RFX7 / RFU, GTPBP10 / Fold change vs veh, GTPBP10 / RFU, CNEP1R1 / Fold change vs veh, CNEP1R1 / RFU, BIVM-ERCC5 /// ERCC5 / Fold change vs veh, BIVM-ERCC5 /// ERCC5 / RFU, ILF3 / Fold change vs veh, ILF3 / RFU 11762660_at / Fold change /veh 11762660_at / RFU VCAN (11757783_s_at) / Fold change /veh VCAN (11757783_s_at) / RFU DDX43 (11728927_at) / Fold change /veh DDX43 (11728927_at) / RFU KRT8 (11758188_x_at) / Fold change /veh KRT8 (11758188_x_at) / RFU NKD1 (11759106_at) / Fold change /veh NKD1 (11759106_at) / RFU SRD5A1 (11742802_a_at) / Fold change /veh SRD5A1 (11742802_a_at) / RFU TPSAB1 /// TPSB2 (11721975_s_at) / Fold change /veh TPSAB1 /// TPSB2 (11721975_s_at) / RFU GSTM3 (11746129_a_at) / Fold change /veh GSTM3 (11746129_a_at) / RFU IL23R (11737362_x_at) / Fold change /veh IL23R (11737362_x_at) / RFU TMEM51 (11727254_a_at) / Fold change /veh TMEM51 (11727254_a_at) / RFU PIWIL2 (11732686_x_at) / Fold change /veh PIWIL2 (11732686_x_at) / RFU ORM1 (11744905_x_at) / Fold change /veh ORM1 (11744905_x_at) / RFU CCDC152 (11743942_at) / Fold change /veh CCDC152 (11743942_at) / RFU ECM1 (11717891_a_at) / Fold change /veh ECM1 (11717891_a_at) / RFU IL23R (11748794_a_at) / Fold change /veh IL23R (11748794_a_at) / RFU TNFAIP8L3 (11732012_x_at) / Fold change /veh TNFAIP8L3 (11732012_x_at) / RFU MBOAT4 (11741988_at) / Fold change /veh MBOAT4 (11741988_at) / RFU 11764193_at / Fold change /veh 11764193_at / RFU TMEM53 (11763286_at) / Fold change /veh TMEM53 (11763286_at) / RFU MAGEB2 (11727129_at) / Fold change /veh MAGEB2 (11727129_at) / RFU TMEM200A (11744735_a_at) / Fold change /veh TMEM200A (11744735_a_at) / RFU CCDC152 (11751479_a_at) / Fold change /veh CCDC152 (11751479_a_at) / RFU FAM211A (11726209_a_at) / Fold change /veh FAM211A (11726209_a_at) / RFU RGS16 (11746705_a_at) / Fold change /veh RGS16 (11746705_a_at) / RFU VCAN (11755009_s_at) / Fold change /veh VCAN (11755009_s_at) / RFU RHOB (11743442_s_at) / Fold change /veh RHOB (11743442_s_at) / RFU RGS16 (11720943_a_at) / Fold change /veh RGS16 (11720943_a_at) / RFU RGS16 (11720944_at) / Fold change /veh RGS16 (11720944_at) / RFU, VPS4B / Fold change vs veh, VPS4B / RFU, CREB1 / Fold change vs veh, CREB1 / RFU, DNAJC13 / Fold change vs veh, DNAJC13 / RFU, GNAQ / Fold change vs veh, GNAQ / RFU, CDK5R1 / Fold change vs veh, CDK5R1 / RFU, ZRANB3 / Fold change vs veh, ZRANB3 / RFU, CUL4A / Fold change vs veh, CUL4A / RFU, CCNY / Fold change vs veh, CCNY / RFU, UFL1 / Fold change vs veh, UFL1 / RFU, COG3 / Fold change vs veh, COG3 / RFU, DIAPH2 / Fold change vs veh, DIAPH2 / RFU, SKA2 / Fold change vs veh, SKA2 / RFU, AFF3 / Fold change vs veh, AFF3 / RFU, LMF1 / Fold change vs veh, LMF1 / RFU, IPO11 / Fold change vs veh, IPO11 / RFU, DFFB / Fold change vs veh, DFFB / RFU, FOXP1 / Fold change vs veh, FOXP1 / RFU, CARD8 / Fold change vs veh, CARD8 / RFU, STRN3 / Fold change vs veh, STRN3 / RFU, ADK / Fold change vs veh, ADK / RFU, RASSF2 / Fold change vs veh, RASSF2 / RFU, WIPF1 / Fold change vs veh, WIPF1 / RFU, LARP1B / Fold change vs veh, LARP1B / RFU, RASA1 / Fold change vs veh, RASA1 / RFU, RB1 / Fold change vs veh, RB1 / RFU, PPFIA1 / Fold change vs veh, PPFIA1 / RFU, MAT2A / Fold change vs veh, MAT2A / RFU, CCT5 / Fold change vs veh, CCT5 / RFU, WDR92 / Fold change vs veh, WDR92 / RFU, CUX1 / Fold change vs veh, CUX1 / RFU, TTC7A / Fold change vs veh, TTC7A / RFU, TMEM135 / Fold change vs veh, TMEM135 / RFU, DEPTOR / Fold change vs veh, DEPTOR / RFU, CPM / Fold change vs veh, CPM / RFU, DNAJB6 / Fold change vs veh, DNAJB6 / RFU, CACNA2D3 / Fold change vs veh, CACNA2D3 / RFU, DTX4 / Fold change vs veh, DTX4 / RFU, TFCP2 / Fold change vs veh, TFCP2 / RFU, GMCL1 /// GMCL1P1 / Fold change vs veh, GMCL1 /// GMCL1P1 / RFU, AEBP2 / Fold change vs veh, AEBP2 / RFU, SNHG1 /// SNORD22 /// SNORD25 /// SNORD26 /// SNORD27 /// SNORD28 /// SNORD29 /// SNORD31 / Fold change vs veh, SNHG1 /// SNORD22 /// SNORD25 /// SNORD26 /// SNORD27 /// SNORD28 /// SNORD29 /// SNORD31 / Fold change (Aza/veh), C12orf56 (ProbeSet 11735607_a_at) / Fold change (ACY-1035/veh), C12orf56 (ProbeSet 11735607_a_at) / Fold change (Aza/veh), FGFR1OP (ProbeSet 11751329_s_at) / Fold change (ACY-1035/veh), FGFR1OP (ProbeSet 11751329_s_at) / Fold change (Aza/veh), VPS36 (ProbeSet 11739960_a_at) / Fold change (ACY-1035/veh), VPS36 (ProbeSet 11739960_a_at) / RFU SYPL1 (11715823_x_at) / Fold change /veh SYPL1 (11715823_x_at) / RFU IGFBP7 (11715501_s_at) / Fold change /veh IGFBP7 (11715501_s_at) / RFU REEP3 (11722064_at) / Fold change /veh REEP3 (11722064_at) / RFU IGLL1 (11728026_x_at) / Fold change /veh IGLL1 (11728026_x_at): dose or concentration left out as unconfirmed. The note with it: ProbeSet 11740528_a_at; LIST D.

With `Nc1ncn([C@@H]2O[C@H](CO)[C@@H](O)[C@H]2O)c(=O)n1` [azacitidine], the “Fold change vs veh, AFF3” value was 0.47.
